In patent US12653814B2, “Benzimidazolone-based cinnamamide derivative as TRPV1 antagonist and pharmaceutical composition for treatment or prevention of pain containing same as active ingredient” (JMACKEM CO., LTD, priority 2020, dated 2026):
pIC50: −log10 of the molar value.

Legend:
[1] = even in the absence of partial agonism; cited from earlier work
[2] = during clinical trials; cited from earlier work
[3] = Evaluation of bioavailability (BA), rat PK after intravenous and oral administration; type: in vivo, SD rats; conditions: male, SD, plasma, 10 mg/kg, read-out: Bioavailability F (%)
Method: SD rats (Coatec, Hana Trading Co., Ltd., 7-8 weeks old, male, n=4, 250-300 g) were used for the experiment. The rats were bred in a small animal breeding room (experimental animal center) set at a temperature of 22±2° C., a relative humidity of 50±5%, an illumination time of 12 hours (08:00˜20:00), and an illumination intensity of 150 to 300 lux. Feed was fed freely during the entire test period, and RO water was provided freely. Before oral administration of the test substances (example compounds and comparative example compounds of the present invention), the rats were fasted for 16 hours.
The dosage of the example compounds and comparative example compounds of the present invention was 5 mg/kg when administered intravenously and 10 mg/kg when administered orally. For intravenous administration, a clear solution in which 10% DMSO, 10% Cremophor EL, and 80% PEG400 were dissolved was administered. For oral administration, a solution or suspension in which 10% DMSO and 10% Cremophor EL were dissolved in 80% DDW was administered.
After the intravenous or oral administration, blood was collected at 5 minutes, 15 minutes, 30 minutes, 1 hour, 2 hours, 4 hours, 6 hours and 8 hours, and the concentrations of the test substances (example compounds and comparative example compounds of the present invention) in plasma were measured by LC-MS/MS.
After adding 80 μl of acetonitrile (including internal standard) to 20 μl of plasma, centrifugation was performed for 5 minutes at 15,000 rpm at 4° C. with vortexing. The supernatant obtained after the centrifugation was analyzed by LC-MS/MS. For HPLC, Nexera XR system (Shimadzu, Japan) was used, and for mass spectrometer, TSQ vantage triple quadruple (Thermo, USA) was used.
The PK parameters were calculated with a non-compartmental analysis model using Phoenix WinNonlin 6.4 version (Pharsight, USA) program.
AUC was calculated using the linear trapezoidal rule in the rising plasma-level phase and the logarithmic trapezoidal rule in the declining phase.

[4] = target: T1, human TRPV1 (hTRPV1) (Homo sapiens, UniProt Q8NER1); experiment: Ca2+ influx assay, antagonism against capsaicin in hTRPV1-HEK recombinant cells; type: cell-based; conditions: capsaicin 10 nM as activator, Fluo4-NW fluorescence, read-out: hTRPV1 IC50 [cap]
T1 construct: host or cells: HEK (PrecisION hTRPV1-HEK recombinant cell line)
T1 sequence (Q8NER1 whole entry): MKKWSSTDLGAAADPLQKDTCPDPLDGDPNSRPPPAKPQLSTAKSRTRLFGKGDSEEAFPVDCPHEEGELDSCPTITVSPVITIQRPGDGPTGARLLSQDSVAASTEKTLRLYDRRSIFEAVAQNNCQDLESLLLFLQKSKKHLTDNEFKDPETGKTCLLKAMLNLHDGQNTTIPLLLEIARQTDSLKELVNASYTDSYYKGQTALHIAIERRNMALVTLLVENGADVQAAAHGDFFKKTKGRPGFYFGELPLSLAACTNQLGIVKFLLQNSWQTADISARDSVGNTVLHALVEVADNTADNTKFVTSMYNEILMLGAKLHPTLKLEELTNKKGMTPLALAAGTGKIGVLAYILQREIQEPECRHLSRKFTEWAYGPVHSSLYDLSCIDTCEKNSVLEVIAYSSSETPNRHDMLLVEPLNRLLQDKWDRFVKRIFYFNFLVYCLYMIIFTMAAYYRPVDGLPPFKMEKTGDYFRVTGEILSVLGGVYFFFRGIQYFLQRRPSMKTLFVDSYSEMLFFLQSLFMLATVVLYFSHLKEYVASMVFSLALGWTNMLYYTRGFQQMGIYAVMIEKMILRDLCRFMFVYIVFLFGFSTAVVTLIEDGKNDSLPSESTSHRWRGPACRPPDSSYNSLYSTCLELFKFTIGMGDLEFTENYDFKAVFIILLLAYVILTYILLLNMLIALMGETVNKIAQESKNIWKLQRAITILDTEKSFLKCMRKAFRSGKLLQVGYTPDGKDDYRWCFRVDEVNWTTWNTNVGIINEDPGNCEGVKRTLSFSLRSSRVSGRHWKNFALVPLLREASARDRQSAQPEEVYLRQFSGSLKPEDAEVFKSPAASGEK

[5] = target: T1, human TRPV1 (hTRPV1); experiment: Evaluation of human pH inhibitory activity in hTRPV1-HEK recombinant cells; type: cell-based; conditions: inhibition of activation at final pH 6.0, test substance 3 μM
Method: Evaluation of Human pH Inhibitory Activity
PrecisION™ hTRPV1-HEK recombinant cells (CYL3063) were purchased from Millipore and used. After culturing the above cells under the conditions of 37° C. and 5% CO2, the cells were inoculated in a 96-well plate at the density of 5×10^4 cells/well, followed by culture for 16 hours. Then, the medium was removed and 100 uL of a staining solution was put into each well, followed by culture for 30 minutes under the conditions of 37° C. and 5% CO2. After 30 minutes, all of the existing staining solution was removed and replaced with 100 uL of HBSS. Thereafter, the cells were acclimatized to room temperature for 15 minutes, and the test substances (example compounds and comparative example compounds of the present invention) were added to each well, followed by culture at room temperature for 15 minutes. Then, the final pH was adjusted to 6.0 using MES, and fluorescence was measured (ex485/em535). In the pH assay, the efficacy of the drug was evaluated using BCTC as a TRPV1 antagonist.

Row | bioavailability [3] | pIC50 [4] | hTRPV1 pH (%, 3 μM) [5] | SMILES | effect on body temperature [1] | subject's body temperature rose to [2]
1 | 2.3% | 7.73 | – | O=C(NCc1ccc(C(F)(F)F)nc1N1CCCC1)Nc1cccc2[nH]c(=O)[nH]c12 [Comparative Example 1, 1-(2-oxo-1,3-dihydrobenzimidazol-4-yl)-3-[[2-pyrrolidin-1-yl-6-(trifluoromethyl)-3-pyridyl]methyl]urea, reference compound] | – | –
2 | 1% | 7.63 | – | CC(C)Oc1nc(C(F)(F)F)ccc1CNC(=O)Nc1cccc2[nH]c(=O)[nH]c12 [Comparative Example 2, 1-[[2-isopropoxy-6-(trifluoromethyl)-3-pyridyl]methyl]-3-(2-oxo-1,3-dihydrobenzimidazol-4-yl)urea, reference compound] | – | –
3 | 3% | 7.87 | – | O=C(NCc1ccc(C(F)(F)F)nc1N1CCCCC1)Nc1cccc2[nH]c(=O)[nH]c12 [Comparative Example 3, 1-(2-oxo-1,3-dihydrobenzimidazol-4-yl)-3-[[2-(1-piperidyl)-6-(trifluoromethyl)-3-pyridyl]methyl]urea, reference compound] | – | –
4 | 13.2% | 7.80 | 52.56% | O=C(/C=C/c1ccc(C(F)(F)F)nc1N1CCCC1)Nc1cccc2[nH]c(=O)[nH]c12 [Example 3, (E)-N-(2-oxo-2,3-dihydro-1H-benzo[d]imidazol-4-yl)-3-(2-(pyrrolidin-1-yl)-6-(trifluoromethyl)pyridin-3-yl)acrylamide] | – | –
5 | 12.5% | 7.95 | 49.86% | O=C(/C=C/c1ccc(C(F)(F)F)nc1N1CCCCC1)Nc1cccc2[nH]c(=O)[nH]c12 [Example 4, (E)-N-(2-oxo-2,3-dihydro-1H-benzo[d]imidazol-4-yl)-3-(2-(piperidin-1-yl)-6-(trifluoromethyl)pyridin-3-yl)acrylamide] | – | –
6 | 35.6% | 7.86 | 30.67% | O=C(/C=C/c1ccc(C(F)(F)F)nc1OCC1CC1)Nc1cccc2[nH]c(=O)[nH]c12 [Example 13, (E)-3-(2-(cyclopropylmethoxy)-6-(trifluoromethyl)pyridin-3-yl)-N-(2-oxo-2,3-dihydro-1H-benzo[d]imidazol-4-yl)acrylamide] | – | –
7 | – | 7.40 | 61.78% | CC1(c2nc(-c3cccc(Cl)c3)c(/C=C/C(=O)Nc3cccc4[nH]c(=O)[nH]c34)s2)CC1 [Example 57, (E)-3-(4-(3-chlorophenyl)-2-(1-methylcyclopropyl)thiazol-5-yl)-N-(2-oxo-2,3-dihydro-1H-benzo[d]imidazol-4-yl)acrylamide] | – | –
8 | – | 7.63 | 67.19% | O=C(CCc1ccc(C(F)(F)F)nc1OCC1CC1)Nc1cccc2[nH]c(=O)[nH]c12 [Example 60, 3-(2-(cyclopropylmethoxy)-6-(trifluoromethyl)pyridin-3-yl)-N-(2-oxo-2,3-dihydro-1H-benzo[d]imidazol-4-yl)propaneamide] | – | –

Continued, molecule first:

Row | SMILES | bioavailability [3] | pIC50 [4] | hTRPV1 pH (%, 3 μM) [5] | effect on body temperature [1] | subject's body temperature rose to [2]
9 | FC(F)(F)c1ccc(-c2cc(Nc3ccc4ncsc4c3)ncn2)c(NCC2CCCCC2)c1 [AMG7905] | – | – | – | cause hypothermia | –
10 | O=C(/C=C/c1ccc(C(F)(F)F)cc1N1CCCCC1)Nc1cccc2c1C[C@H](O)C2 [AMG8562] | – | – | – | cause hypothermia | –
11 | CC(=O)Nc1nc2c(Oc3cc(-c4ccc(C(F)(F)F)cc4)ncn3)cccc2s1 [AMG 517] | – | – | – | – | 40.2 °C
12 | CC(C)COc1nc(C(F)(F)F)ccc1/C=C/C(=O)Nc1cccc2[nH]c(=O)[nH]c12 [Example 10, (E)-3-(2-isobutoxy-6-(trifluoromethyl)pyridin-3-yl)-N-(2-oxo-2,3-dihydro-1H-benzo[d]imidazol-4-yl)acrylamide] | 25.9% | 7.89 | 53.26% | – | –
13 | CC(C)COc1nc(C(F)(F)F)ccc1CCC(=O)Nc1cccc2[nH]c(=O)[nH]c12 [Example 59, 3-(2-isobutoxy-6-(trifluoromethyl)pyridin-3-yl)-N-(2-oxo-2,3-dihydro-1H-benzo[d]imidazol-4-yl)propaneamide] | – | 7.39 | 59.32% | – | –
14 | O=C(Nc1cccc2[nH]c(=O)[nH]c12)C1CC1c1cc(C(F)(F)F)nn1-c1cccc(Cl)c1 (centres unmarked) [Example 63, 2-(1-(3-chlorophenyl)-3-(trifluoromethyl)-1H-pyrazol-5-yl)-N-(2-oxo-2,3-dihydro-1H-benzo[d]imidazol-4-yl)cyclopropane-1-carboxamide] | – | 7.99 | 0.53% | – | –
